In PubChem BioAssay (NCI) one finds TGI data, which are given here for 14 molecules.

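Protocol summary: plate cells (96-well), add compound at 5 concentrations, incubate 48 h, interpolate endpoints linearly. TGI: total growth inhibition.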 Some results are limits rather than exact numbers.

Assay in all cases: growth of human tumour cells (NCI), 48 h
The subject of experiment [1] is DU-145 prostate.
The test system of experiment [2] is MOLT-4 leukemia.
The subject of experiment [3] is UACC-257 melanoma.
In experiment [4] the test system is KM12 colon.
Experiment [5] has as its system CAKI-1 renal.
Experiment [6] concerns SF-268 CNS.
For experiment [7], the system named is A498 renal.
The test system of experiment [8] is NCI-H23 lung.
Experiment [9] deals with NCI/ADR-RES ovarian.
Experiment [10] concerns CCRF-CEM leukemia.

In the case of `CCCCCCCCCCCCCCCCNc1ccn(C2CC(OP(=O)(O)OCC3OC(n4cc(CC)c(=O)[nH]c4=O)CC3O)C(CO)O2)c(=O)n1` (stereo not drawn), the TGI was over 100 µM in [1]; 41.3 µM in [2]; 97.4 µM in experiment [3]; 29.6 µM in experiment [4]; over 100 µM in experiment [5]; 33.5 µM in experiment [6]. Further, the TGI in [7] was over 100 µM; in experiment [8] it was over 100 µM; in experiment [9], 84.9 µM.
With `CC(C)CC(NC(=O)C(COc1ccc([N+](=O)[O-])cc1)Cc1ccccc1)C(=O)Nc1ccccc1` (stereo not drawn), the TGI in experiment [1] is over 100 µM; in experiment [2], over 100 µM; in [10], over 100 µM; in experiment [3], over 100 µM; in experiment [4], 21.5 µM; in experiment [5] it was 83.8 µM. The TGI in experiment [7] came out at 72.2 µM; in [8], 28.7 µM; in [9], 43.3 µM.
Take `COc1ccc(C(C)NNC(=O)c2ccncc2)cc1F` (stereo not drawn): the TGI in experiment [1], in [2], in [10], in experiment [3], in experiment [4] and in experiment [5] was over 100 µM each time. The TGI in experiment [6], in experiment [7], in experiment [8] and in experiment [9] was over 100 µM throughout.
On to `Cc1nn(-c2ccccn2)c2c1C(SC#N)=C(C=O)CC2`, for which the TGI in experiment [1] was determined as 28.2 µM; in experiment [2], 6.95 µM; in experiment [10] it was 6.43 µM; in experiment [3], 17.8 µM; in experiment [4] it was 32.7 µM; in experiment [5], 19 µM. In addition, the TGI worked out at 33 µM in experiment [6], 5.57 µM in experiment [7], 32.2 µM in experiment [8] and 45.5 µM in [9].
For `COc1ccc(NS(=O)c2cccc(C)c2)cc1` (stereo not drawn), the TGI in [1], in experiment [2], in [10], in experiment [3], in experiment [4] and in [5] was over 100 µM each time. Also, the TGI in [6], in experiment [8] and in [9] was over 100 µM throughout.
Take `c1ccc(CNc2ncnc3n[nH]nc23)cc1`: the TGI in experiment [1], in [2], in experiment [10], in [3], in experiment [4] and in experiment [5] was over 100 µM throughout. The TGI in [7], in experiment [8] and in experiment [9] was over 100 µM in each case.
Turning to `N#Cc1c(C#N)c(-c2ccccc2)n(/N=C\c2ccccc2)c1N`, the TGI in experiment [1] was over 100 µM; in experiment [2] it was 30.9 µM; in [10], 51.2 µM; in [3], 70.3 µM; in experiment [4], over 100 µM; in experiment [5], over 100 µM. In addition, the TGI in experiment [6] was over 100 µM; in experiment [7], 77.4 µM; in experiment [8], over 100 µM; in experiment [9], 52.5 µM.
On to `CCOC(=O)c1cn(C)nc1N/C(C)=C\C(=O)c1ccccc1`, for which the TGI in experiment [1], in [2], in experiment [10], in experiment [3], in experiment [4] and in [5] was over 100 µM in each case. Further, the TGI in experiment [6], in experiment [8] and in experiment [9] was over 100 µM each time.
With `O=C(NCc1ccccc1)c1c(O)c2ccccc2[nH]c1=O`, the TGI in [1], in [2], in experiment [10], in [3], in experiment [4] and in [5] was over 100 µM in each case. Also, the TGI in [6], in [7], in experiment [8] and in experiment [9] was over 100 µM throughout.
Take `O=C(NC/C=C/Br)NC1CCNc2ccccc21` (stereo not drawn): the TGI in experiment [1] was over 100 µM; in [2], 95.4 µM; in [10], over 100 µM; in [3] it was 54.9 µM; in experiment [4], over 100 µM; in experiment [5], over 100 µM. Moreover, the TGI in [6] is over 100 µM; in experiment [7], 70.4 µM; in experiment [8] it was 55.4 µM; in [9], 99.7 µM.
As to `COC(=O)C1[C@H](C(=O)OC)C1(Br)CBr` (stereo partly drawn), the TGI in experiment [1], in experiment [2], in [3], in [4], in [5] and in [6] was over 100 µM throughout. Besides, the TGI in [7], in experiment [8] and in experiment [9] was over 100 µM throughout.
`C=C1C(=O)O[C@H]2[C@H]([C@H](C)CCCC(C)=O)O[C@H]([C@@]3(C)CCC(=O)O3)C[C@@H]12`: the TGI in experiment [1] is over 100 µM; in experiment [2], over 100 µM; in experiment [10] it was 83.5 µM; in experiment [3] it was over 100 µM; in [4], over 100 µM; in experiment [5], 54.3 µM. Moreover, the TGI in experiment [6] was 9.34 µM; in experiment [7], over 100 µM; in experiment [8] it was over 100 µM; in experiment [9], over 100 µM.
With `COc1ccc(NC(=S)NNC(=O)c2cc(-c3ccccc3)nc3ccccc23)cc1`, the TGI was 45.4 µM in experiment [1]; 59.2 µM in [2]; 34.8 µM in experiment [10]; 46.9 µM in experiment [3]; over 100 µM in experiment [4]; 60 µM in experiment [5]. Besides, the TGI in [6] came to 90.1 µM; in experiment [7], 35.1 µM; in [8], 30.6 µM; in [9], 35.5 µM.
As for `COc1ccccc1N1C(=O)/C(=C\c2cccc(Oc3ccccc3)c2)S(=O)(=O)C1c1ccccc1` (stereo not drawn), the TGI in [1] is over 100 µM; in experiment [2] it was 32.8 µM; in experiment [10], over 100 µM; in [3], over 100 µM; in experiment [4] it was over 100 µM; in experiment [5], over 100 µM. The TGI in [7] is over 100 µM; in experiment [8] it was over 100 µM; in [9], 67.6 µM.
